No end group written: not given here.
What was measured:
[1] = tested on: Sitophilus oryzae sensitive weevil strain WAA42; assay: Toxicity assay on weevils, sensitive strain WAA42 (survival analysis on food pellets); assay type: in vivo; settings: adult S. oryzae, sensitive strain WAA42, fed food pellets (wheat flour and water) incorporating peptide at 400 µg.g−1, days +/− SEM, LT50 calculated with SIMFIT
Method: (§1) Rice weevils (Sitophilus oryzae, Coleoptera) were reared on wheat seeds at 27.5°C and 70% RH. Tests and survival analysis were performed on adults feeding on food pellets (composed of wheat flour and water) incorporating PA1b (extracted from pea seeds for control tests or produced in tobacco) at 400 µg.g^−1, as described in detail in [10]. LT50 values were calculated using the SIMFIT software (http://www.simfit.man.ac.uk). The PA1b resistant strain, ISOR3, was reared in an identical way except that the weevils were fed on pea seeds rather than on wheat seeds.

[2] = tested on: Sitophilus oryzae PA1b resistant strain ISOR3; assay: Toxicity assay on weevils, PA1b resistant strain ISOR3; assay type: in vivo; settings: adult S. oryzae, PA1b resistant strain ISOR3, food pellets incorporating peptide at 400 µg.g−1
Method: as §1

Sf9 insect cells = assay: Viability assay on Sf9 insect cells; assay type: cell-based, Spodoptera frugiperda; settings: Sf9 cell viability assay, nM (SEM), HPLC purified tobacco-expressed isoforms
Method: Spodoptera frugiperda Sf9 cells were grown and used for viability assays, according to [23].

Substance	TL50 WAA42 [1]	TL50 ISOR3 (mortality on resistant strain) [2]	CL50 Sf9 (Sf9 insect cells)	TL50 WAA42 ([1]; listed as 4)	TL50 WAA42 ([1]; listed as isoform 4)	TL50 WAA42 ([1]; listed as 3)	TL50 WAA42 ([1]; listed as isoform 3)	CL50 Sf9 (Sf9 insect cells; listed as 3)	CL50 Sf9 (Sf9 insect cells; listed as isoform 3)
ASCNGVCSPFEMoxPPCGTSACRCIPVGLVIGYCRNPSG (bicyclic or more) [Isoform 6, pea PA1b isoform (GenBank AJ574793) expressed in tobacco]	8.9+−0.7 days	no mortality	96 (22) nM	–	–	–	–	–	–
ASCNGVCSPFEMoxPPCGSSACRCIPVGLVVGYCRHPSG (bicyclic or more) [Isoform 4, pea PA1b isoform (GenBank M13790 and AJ276882) expressed in tobacco]	–	no mortality	269 ± 50 nM	12.9+−1.1 days	12.9 ± 1.1 days	–	–	–	–
ASCNGVCSPFEMPPCGTSACRCIPVGLFIGYCRNPSG (also: bicyclic or more (positions not given here)) [Isoform 2.2, pea PA1b isoform 2 (GenBank AJ574794), non-oxidized Met form, expressed in tobacco]	8.9+−0.6 days	no mortality	53 (16) nM	–	–	–	–	–	–
ASCNGVCSPFEMoxPPCGTSACRCIPVGLFIGYCRNPSG (bicyclic or more) [Isoform 2.1, pea PA1b isoform 2 (GenBank AJ574794), oxidized Met form, expressed in tobacco]	9.5+−0.7 days	no mortality	82 (36) nM	–	–	–	–	–	–
ASCNGVCSPFEMoxPPCGSSACRCIPVGLLIGYCRNPSG (bicyclic or more) [Isoform 1, pea PA1b isoform (GenBank AJ574795) expressed in N. benthamiana with the PA1-cassette]	9.2+−0.9 days	no mortality	82 (24) nM	–	–	–	–	–	–
ISCNGVCSPFDIPPCGSPLCRCIPAGLVIGNCRNPY G (bicyclic or more) [Isoform 3, pea PA1b isoform (GenBank AJ574796) expressed in tobacco]	–	no mortality	–	–	–	no mortality	completely inactive	>1500 nM	completely inactive
ASCNGVCSPFEMoxPPCGTSACRCIPVGLVVGYCRNPSG (bicyclic or more) [Isoform 5, pea PA1b isoform (GenBank M13709) expressed in tobacco]	9.35+−0.7 days	no mortality	99 (31) nM	–	–	–	–	–	–

From article PMC3859497, “Expression and Biological Activity of the Cystine Knot Bioinsecticide PA1b (Pea Albumin 1 Subunit b)” (PLoS ONE, 2013)
